In patent US20040162235A1, “Delivery of siRNA to cells using polyampholytes” (priority 2003, published 2004):
Like-named read-outs stand apart in the source and are kept apart here. *1 amine or outer side, *2 acyl side, *3 side chain or, on linkers, in order; H or OH if unused. Where a SMILES comes first, the peptide text is derived from it. Where no end group is shown, it is not given here. The star is where a group is joined. Suc = O=C(CCC(=O)[*:2])[*:1]; X1 = C/C(C(=O)O)=C(\C)C(=O)*

Experiments:
[1] = Red blood cell (RBC) hemolysis assay; format: cell-based; details: 37° C., read-out: Percent Hemolysis; for hemolysis at 30 min: red blood cells (washed, harvested from whole blood)
Procedure: C. […] RBCs were harvested by centrifuging whole blood for 4 min. They were washed three times with 100 mM dibasic sodium phosphate at the desired pH, and resuspended in the same buffer to yield the initial volume. They were diluted 10 times in the same buffer, and 200 μL of this suspension was used for each tube. This yields […] RBCs per tube. Each tube contained 800 μL of buffer, 200 μL of the RBC suspension, and the peptide with or without polymer. Each sample was then repeated to verify reproducibility. The tubes were incubated for 30 minutes in a 37° C. water bath. They were spun for 5 min at full speed in the microcentrifuge. Lysis was determined by measuring the absorbance of the supernatant at 541 nm, reflecting the amount of hemoglobin that had been released into the supernatant. Percent hemolysis was calculated assuming 100% lysis to be measured by the hemoglobin released by the red blood cells in water; controls of RBCs in buffer with no peptide were also run.

[2] = Lability at pH 5: conversion of maleamic acid to amine and anhydride, followed by TNBS; format: physicochemical; details: sodium acetate buffer pH 5
Procedure: A. DM-poly-L-lysine: Dimethyl maleamic modified poly-L-lysine (10 mg/mL) was incubated in 10 mM sodium acetate buffer pH 5. At various times, aliquots (10 μg) were removed and added to 0.5 mL of 100 mM borax solution containing 0.4 mM trinitrobenzenesulfonate (TNBS). After 30 min, the absorbance of the solution at 420 nm was measured. To determine the concentration of amines at each time point, the extinction coefficient was determined for the product of TNBS and poly-L-lysine. Using this extinction coefficient we were able to calculate the amount of amines and maleamic groups at each time point. A plot of In (At/A0) as a function of time was a straight line whose slope was the negative of the rate constant for the conversion of maleamic acid to amine and anhydride, where At is the concentration of maleamic acid at a time t and A0 is the initial concentration of maleamic acid. For two separate experiments we calculated rate constants of […] which correspond to half lives of roughly 10 and 4 minutes, respectively.
B. DM-KL3: Dimethyl maleamic modified KL3 (0.1 mg/mL) was incubated in 40 mM sodium acetate buffer pH 5 and 1 mM cetyltrimetylammonium bromide. At various times, 10 μg aliquots were removed and added to 0.05 mL 1 M borax solution containing 4 mM TNBS. After 30 min, the absorbance of the solution at 420 nm was measured. […]

Compound | hemolysis ([1]; pH 5.4, 30 minutes) | hemolysis ([1]; pH 7.5, 30 minutes) | hemolysis at 30 min ([1]; pH 5.4, 30 minutes) | hemolysis at 30 min ([1]; pH 7.5, 30 minutes) | half-life [2] | rate constant for the conversion of maleamic acid to amine and anhydride [2]
CC(C)C[C@H](NC(=O)[C@H](CC(C)C)NC(=O)[C@H](CCCCNC(=O)CCC(=O)O)NC(=O)[C@H](CC(C)C)NC(=O)[C@H](CC(C)C)NC(=O)[C@H](CC(C)C)NC(=O)[C@H](CCCCNC(=O)CCC(=O)O)NC(=O)[C@H](CC(C)C)NC(=O)[C@H](CC(C)C)NC(=O)[C@H](CCCCNC(=O)CCC(=O)O)NC(=O)[C@H](CC(C)C)NC(=O)[C@H](Cc1c[nH]c2ccccc12)NC(=O)[C@H](CC(C)C)NC(=O)[C@H](CCCCNC(=O)CCC(=O)O)NC(=O)[C@H](CC(C)C)NC(=O)[C@H](CC(C)C)NC(=O)[C@H](CC(C)C)NC(=O)[C@H](CCCCNC(=O)CCC(=O)O)NC(=O)[C@H](CC(C)C)NC(=O)[C@H](CC(C)C)NC(=O)[C@H](CCCCNC(=O)CCC(=O)O)NC(=O)CCC(=O)O)C(=O)O [Succinyl-KL3] (Suc-K(Suc)LLK(Suc)LLLK(Suc)LWLK(Suc)LLK(Suc)LLLK(Suc)LL-OH; N-terminus and C-terminus assumed) | 2% | 1.3% |  |  |  | 
KLLKLLLKLWLKLLKLLLKLL [KL3] | 83% | 62% |  |  |  | 
CC[C@H](C)[C@H](NC(=O)CN)C(=O)NCC(=O)N[C@@H](C)C(=O)N[C@H](C(=O)N[C@@H](CC(C)C)C(=O)N[C@@H](CCCCN)C(=O)N[C@H](C(=O)N[C@@H](CC(C)C)C(=O)N[C@H](C(=O)N[C@H](C(=O)NCC(=O)N[C@@H](CC(C)C)C(=O)N1CCC[C@H]1C(=O)N[C@@H](C)C(=O)N[C@@H](CC(C)C)C(=O)N[C@H](C(=O)N[C@@H](CO)C(=O)N[C@@H](Cc1c[nH]c2ccccc12)C(=O)N[C@H](C(=O)N[C@@H](CCCCN)C(=O)N[C@@H](CCCNC(=N)N)C(=O)N[C@@H](CCCCN)C(=O)N[C@@H](CCCNC(=N)N)C(=O)N[C@@H](CCC(N)=O)C(=O)N[C@@H](CCC(N)=O)C(N)=O)[C@@H](C)CC)[C@@H](C)CC)[C@@H](C)O)[C@@H](C)O)C(C)C)C(C)C [Melittin, reference compound] |  |  | 85% | 92% |  | 
C/C(C(=O)O)=C(\C)C(=O)NCCCC[C@H](NC(=O)/C(C)=C(/C)C(=O)O)C(=O)N[C@@H](CC(C)C)C(=O)N[C@@H](CC(C)C)C(=O)N[C@@H](CCCCNC(=O)/C(C)=C(/C)C(=O)O)C(=O)N[C@@H](CC(C)C)C(=O)N[C@@H](CC(C)C)C(=O)N[C@@H](CC(C)C)C(=O)N[C@@H](CCCCNC(=O)/C(C)=C(/C)C(=O)O)C(=O)N[C@@H](CC(C)C)C(=O)N[C@@H](Cc1c[nH]c2ccccc12)C(=O)N[C@@H](CC(C)C)C(=O)N[C@@H](CCCCNC(=O)/C(C)=C(/C)C(=O)O)C(=O)N[C@@H](CC(C)C)C(=O)N[C@@H](CC(C)C)C(=O)N[C@@H](CCCCNC(=O)/C(C)=C(/C)C(=O)O)C(=O)N[C@@H](CC(C)C)C(=O)N[C@@H](CC(C)C)C(=O)N[C@@H](CC(C)C)C(=O)N[C@@H](CCCCNC(=O)/C(C)=C(/C)C(=O)O)C(=O)N[C@@H](CC(C)C)C(=O)N[C@@H](CC(C)C)C(=O)O [DM-KL3] (X1-K(X1)LLK(X1)LLLK(X1)LWLK(X1)LLK(X1)LLLK(X1)LL-OH; N-terminus and C-terminus assumed) | 37% | 4.3% |  |  | ~8 min | 0.087 min⁻¹
